Where two headings read alike, the source gives them in different places.
Legend:
[1] = tested on: stable HCV 1b RLuc replicon cells (dicistronic genotype 1b Con1 replicon); assay: Renilla luciferase HCV replicon reporter assay, genotype 1b; format: cell-based; details: Hepatitis C virus, 72 h, stable 1b Con1 RLuc replicon cells, 72 hours; read-out: 1b
Procedure, shortened: (§1)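 Cells carrying the stable or transiently transfected (Huh-Lunet) dicistronic RLuc replicons received 3-fold serial compound dilutions from 10 mM DMSO stocks. After 72 h, cells were lysed and Renilla luciferase read. DMSO served as the no-inhibition control and ITMN-191 above 100×EC50 as the positive control; EC50 by non-linear regression.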

[2] = tested on: stable HCV 1a RLuc replicon cells (dicistronic genotype 1a H77 replicon); assay: Renilla luciferase HCV replicon reporter assay, genotype 1a; format: cell-based; details: Hepatitis C virus, 72 h, stable 1a H77 RLuc replicon cells
Procedure, shortened: as §1

[3] = tested on: NS5A chimeric genotype 1b Con1 replicon with genotype 3a S52 strain NS5A gene; assay: Replicon assay, genotype 3a NS5A chimera; format: cell-based, HCV; details: Hepatitis C virus
[4] = tested on: NS5A chimeric genotype 2a JFH-1 replicon with genotype 2a J6 strain NS5A gene (M31 present); assay: Replicon assay, genotype 2a J6 NS5A chimera; format: cell-based, HCV; details: Hepatitis C virus
Procedure, shortened: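 72 h compound exposure (3-fold dilutions from 10 mM DMSO stocks) of replicon cells: stable dicistronic RLuc 1a H77, 1b Con1, 2a JFH-1 (NS5A L31); J6-NS5A chimera in JFH-1 (M31), transient in Huh-Lunet or stable. Renilla luciferase read-out, non-linear regression → EC50. DMSO negative control.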

[5] = tested on: NS5A chimeric genotype 2a JFH-1 replicon with genotype 2b MD2b-1 strain NS5A gene (M31 present); assay: Replicon assay, genotype 2b NS5A chimera; format: cell-based, HCV; details: Hepatitis C virus
Procedure, shortened: as §1

[6] = tested on: stable HCV 2a JFH-1 Rluc replicon cells (L31 present in NS5A); assay: Renilla luciferase HCV replicon reporter assay, genotype 2a JFH-1; format: cell-based; details: Hepatitis C virus
Procedure, shortened: as §1

[7] = tested on: NS5A chimeric genotype 1b Con1 replicon with genotype 4a ED43 strain NS5A gene; assay: Replicon assay, genotype 4a NS5A chimera; format: cell-based, HCV; details: Hepatitis C virus
[8] = read-out: 3a (s) (nM), genotype 3a NS5A chimeric replicon, stable replicon cells (s)
[9] = read-out: 3a (s), (s), activity range
[10] = read-out: 2a J6 (t) (nM), genotype 2a J6 NS5A chimeric replicon (M31), transiently transfected (t) into Huh-Lunet cells
[11] = read-out: 2a J6 (t), transiently transfected (t) into Huh-Lunet cells, activity range
[12] = 2BS, read-out: 2b (s), stably replicating replicon cells (s), activity range
[13] = read-out: 2b (s) (nM), genotype 2b MD2b-1 NS5A chimeric replicon (M31), stably replicating replicon cells (s)
[14] = read-out: 2a JFH (nM), genotype 2a JFH-1 replicon (L31 in NS5A), stable cells
[15] = read-out: 2a JFH, stable 2a JFH-1 Rluc replicon cells, L31 in NS5A, activity range
[16] = read-out: 4a (s) (nM), genotype 4a NS5A chimeric replicon, stable replicon cells (s)
[17] = read-out: 4a (s), (s), activity range

Structure (SMILES)	EC50 [1]	EC50 [2]	EC50 ([2]; activity range)	EC50 [3, 8]	EC50 [3, 9]	EC50 [4, 10]	EC50 [4, 11]	EC50 [5, 12]	EC50 [5, 13]	EC50 [6, 14]	EC50 [6, 15]	EC50 [7, 16]	EC50 [7, 17]
CC[C@H](C)[C@H](NC(=O)OC)C(=O)N1C[C@@H](C)C[C@H]1c1nc2ccc3cc4c(cc3c2[nH]1)OCc1cc(-c2cnc([C@@H]3CC[C@H](C)N3C(=O)[C@@H](NC(=O)OC)C(C)C)[nH]2)ccc1-4 [GR]	0.022 nM	0.016 nM	< 0.1 nM	0.159 nM	0.1 to 0.999 nM	0.198 nM	0.1 to 0.999 nM	0.1 to 0.999 nM	0.794 nM	0.025 nM	< 0.1 nM	0.025 nM	< 0.1 nM
CC[C@H]1CC[C@@H](c2nc3ccc4cc5c(cc4c3[nH]2)OCc2cc(-c3cnc([C@@H]4CC[C@H](C)N4C(=O)[C@@H](NC(=O)OC)C(C)C)[nH]3)ccc2-5)N1C(=O)[C@@H](NC(=O)OC)[C@@H](C)O [GS]	0.021 nM	0.018 nM	< 0.1 nM	0.271 nM	0.1 to 0.999 nM	0.116 nM	0.1 to 0.999 nM	0.1 to 0.999 nM	0.372 nM	0.017 nM	< 0.1 nM	0.017 nM	< 0.1 nM
CC[C@H]1C[C@@H](c2nc3ccc4cc5c(cc4c3[nH]2)OCc2cc(-c3cnc([C@@H]4CC[C@H](C)N4C(=O)[C@@H](NC(=O)OC)C(C)C)[nH]3)ccc2-5)N(C(=O)[C@@H](NC(=O)OC)C(C)C)C1 [GT]	0.021 nM	0.017 nM	< 0.1 nM	0.187 nM	0.1 to 0.999 nM	0.257 nM	0.1 to 0.999 nM	1 to 44 nM	1.73 nM	0.028 nM	< 0.1 nM	0.031 nM	< 0.1 nM
CC[C@H]1C[C@@H](c2nc3ccc4cc5c(cc4c3[nH]2)OCc2cc(-c3cnc([C@@H]4CC[C@H](C)N4C(=O)[C@@H](NC(=O)OC)C(C)C)[nH]3)ccc2-5)N(C(=O)[C@@H](NC(=O)OC)[C@@H](C)OC)C1 [GU]	0.022 nM	0.014 nM	< 0.1 nM	0.152 nM	0.1 to 0.999 nM	0.075 nM	< 0.1 nM	0.1 to 0.999 nM	0.728 nM	0.014 nM	< 0.1 nM	0.026 nM	< 0.1 nM
CC[C@H]1C[C@@H](c2ncc(-c3ccc4c(c3)COc3cc5c(ccc6nc([C@@H]7CC[C@H](C)N7C(=O)[C@@H](NC(=O)OC)C(C)C)[nH]c65)cc3-4)[nH]2)N(C(=O)[C@@H](NC(=O)OC)C(C)C)C1 [GW]	0.015 nM	0.017 nM	< 0.1 nM	0.127 nM	0.1 to 0.999 nM	0.771 nM	0.1 to 0.999 nM	1 to 44 nM	2.41 nM	0.018 nM	< 0.1 nM	0.01 nM	< 0.1 nM
CC[C@H]1C[C@@H](c2ncc(-c3ccc4c(c3)COc3cc5c(ccc6nc([C@@H]7CC[C@H](C)N7C(=O)[C@@H](NC(=O)OC)C(C)C)[nH]c65)cc3-4)[nH]2)N(C(=O)[C@@H](NC(=O)OC)[C@@H](C)OC)C1 [GX]	0.016 nM	0.016 nM	< 0.1 nM	0.106 nM	0.1 to 0.999 nM	0.135 nM	0.1 to 0.999 nM	1 to 44 nM	1.18 nM	0.013 nM	< 0.1 nM	0.01 nM	< 0.1 nM
COC(=O)N[C@H](C(=O)N1[C@@H](C)CC[C@H]1c1nc2ccc3cc4c(cc3c2[nH]1)OCc1cc(-c2cnc([C@@H]3CC[C@H](C)N3C(=O)[C@@H](NC(=O)OC)[C@@H](C)O)[nH]2)ccc1-4)C(C)C [GY]	0.032 nM	0.023 nM	< 0.1 nM	0.048 nM	< 0.1 nM	0.06 nM	< 0.1 nM	0.1 to 0.999 nM	0.311 nM	0.013 nM	< 0.1 nM	0.015 nM	< 0.1 nM
COC(=O)N[C@@H](CO)C(=O)N1[C@@H](C)CC[C@H]1c1nc2ccc3cc4c(cc3c2[nH]1)OCc1cc(-c2cnc([C@@H]3CC[C@H](C)N3C(=O)[C@@H](NC(=O)OC)C(C)C)[nH]2)ccc1-4 [GZ]	0.045 nM	0.042 nM	< 0.1 nM	0.158 nM	0.1 to 0.999 nM	0.534 nM	0.1 to 0.999 nM	1 to 44 nM	1.15 nM	0.019 nM	< 0.1 nM	0.031 nM	< 0.1 nM
CCC[C@H](NC(=O)OC)C(=O)N1[C@@H](C)CC[C@H]1c1ncc(-c2ccc3c(c2)COc2cc4c(ccc5nc([C@@H]6CC[C@H](C)N6C(=O)[C@H](CCC)NC(=O)OC)[nH]c54)cc2-3)[nH]1 [HA]	0.019 nM	0.018 nM	< 0.1 nM	0.132 nM	0.1 to 0.999 nM	4.12 nM	1 to 44 nM	1 to 44 nM	5.42 nM	0.033 nM	< 0.1 nM	0.028 nM	< 0.1 nM
[2H]C([2H])([2H])C([2H])(C([2H])([2H])[2H])[C@]([2H])(NC(=O)OC)C(=O)N1[C@@H](C)CC[C@H]1c1ncc(-c2ccc3c(c2)COc2cc4c(ccc5nc([C@@H]6CC[C@H](C)N6C(=O)[C@@]([2H])(NC(=O)OC)C([2H])(C([2H])([2H])[2H])C([2H])([2H])[2H])[nH]c54)cc2-3)[nH]1 [HB]	0.012 nM	0.012 nM	< 0.1 nM	0.038 nM	< 0.1 nM	0.155 nM	0.1 to 0.999 nM	0.1 to 0.999 nM	0.49 nM	0.011 nM	< 0.1 nM	0.011 nM	< 0.1 nM
COC(=O)N[C@@H](C)C(=O)N1[C@@H](C)CC[C@H]1c1nc2ccc3cc4c(cc3c2[nH]1)OCc1cc(-c2cnc([C@@H]3CC[C@H](C)N3C(=O)[C@@H](NC(=O)OC)C(C)C)[nH]2)ccc1-4 [HC]	0.016 nM	0.012 nM	< 0.1 nM	0.105 nM	0.1 to 0.999 nM	1.43 nM	1 to 44 nM	1 to 44 nM	1.82 nM	0.014 nM	< 0.1 nM	0.014 nM	< 0.1 nM
COC(=O)N[C@H](C(=O)N1[C@@H](C)CC[C@H]1c1ncc(-c2ccc3c(c2)COc2cc4c(ccc5nc([C@@H]6CC[C@H](C)N6C(=O)[C@@H](NC(=O)OC)C6CC6)[nH]c54)cc2-3)[nH]1)C(C)C [HD]	0.017 nM	0.015 nM	< 0.1 nM	0.102 nM	0.1 to 0.999 nM	1.39 nM	1 to 44 nM	1 to 44 nM	1.9 nM	0.017 nM	< 0.1 nM	0.016 nM	< 0.1 nM
COC(=O)N[C@H](C(=O)N1[C@@H](C)CC[C@H]1c1ncc(-c2ccc3c(c2)COc2cc4c(ccc5nc([C@@H]6CC[C@H](C)N6C(=O)[C@@H](NC(=O)OC)C6CCCCC6)[nH]c54)cc2-3)[nH]1)C(C)C [HE]	0.02 nM	0.011 nM	< 0.1 nM	0.074 nM	< 0.1 nM	0.677 nM	0.1 to 0.999 nM	1 to 44 nM	1.59 nM	0.017 nM	< 0.1 nM	0.014 nM	< 0.1 nM
COC(=O)N[C@@H](C)C(=O)N1[C@@H](C)CC[C@H]1c1ncc(-c2ccc3c(c2)COc2cc4c(ccc5nc([C@@H]6CC[C@H](C)N6C(=O)[C@H](C)NC(=O)OC)[nH]c54)cc2-3)[nH]1 [HF]	0.066 nM	0.043 nM	< 0.1 nM	0.556 nM	0.1 to 0.999 nM	19.5 nM	1 to 44 nM	1 to 44 nM	16.3 nM	0.06 nM	< 0.1 nM	0.111 nM	0.1 to 0.999 nM
COC(=O)N[C@H](C(=O)N1CCC[C@H]1c1ncc(-c2ccc3c(c2)COc2cc4c(ccc5nc([C@@H]6CCCN6C(=O)[C@@H](NC(=O)OC)[C@@H](C)OC)[nH]c54)cc2-3)[nH]1)[C@@H](C)OC [HG]	0.109 nM	0.06 nM	< 0.1 nM	0.129 nM	0.1 to 0.999 nM	0.185 nM	0.1 to 0.999 nM	0.1 to 0.999 nM	0.733 nM	0.021 nM	< 0.1 nM	0.033 nM	< 0.1 nM

From patent publication US10800789B2, “Antiviral compounds” (Gilead Pharmasset LLC, priority 2012, dated 2020)
